Measured values: patent US11773108B2, “Indene derivatives useful in treating pain and inflammation” (TARO PHARMACEUTICALS INC., priority 2018, dated 2023)

Tests used:
[1] = tested on: T cells isolated from mouse spleens; test: T cell proliferation (anti-CD3/anti-CD28 dynabeads, CCK-8 assay); type: cell-based; conditions: 72 hours, read-out: Scoring: IC50, cell proliferation
Procedure: weeks old. Cells were harvested under sterile conditions by forcing each spleen though a cell filter (pore size 100 μm diameter). A homogenous cell suspension was obtained by washing the cells in fresh medium and passing cells through a smaller cell filter (pore size 70 μm).
Untouched T cells were isolated using the Pan T cell isolation kit (Miltenyi Biotech). Briefly, cells were counted and incubated with the required volume of antibody cocktail for 5 minutes at 4° C. before addition of microbeads and incubation for 10 minutes at 4° C. Labeled cells were retained in a magnetic column while unlabeled cells (T cells) passed through the column and were retained for use in the assay.
Cell viability was assessed by Trypan Blue exclusion and found to be >99% prior to transfer to plates. Isolated T cells were seeded out in 96 well plates at a density of 50,000 cells per well and allowed to incubate for 60 minutes in a humidified cell culture (37° C., 5% CO2) incubator prior to compound treatment. The media used for this assay (TexMACS, Miltenyi Biotech) was previously optimized for proliferation of T cells in serum free conditions.
Representative compounds of the invention (i.e., test compounds) were prepared as 30 mM stocks in 100% DMSO. Test compounds were initially diluted in media to yield 3 mM stocks before an additional 1:10 dilution in media was performed to yield working stocks of 300 μM (1% DMSO). Subsequent dilutions were performed in media (supplemented with 1% DMSO). When added to the assay plates (1:10 dilution), these yielded final concentrations in the assay plates of in 0.1% DMSO. The reference compound, Cyclosporin A, was prepared in an identical manner as above.
Unstimulated and Stimulated Control wells received an identical volume of TexMACS media/1% DMSO at this time, resulting in a final concentration of 0.1% DMSO across the plate. […] After removal of 60% of the supernatant for subsequent ELISA, cell proliferation was assessed using the CCK-8 assay. […]

[2] = Metabolism by human liver microsomes; type: in vitro ADME; conditions: human liver microsomes 1 mg/mL protein, 10 μM, in the presence of NADPH, LC-MS/MS
Procedure: Representative compounds of the invention (i.e., test compounds) and the positive control, 7-ethoxycoumarin, were prepared as stock solutions at 10 mM in DMSO and eventually diluted to 10 μM in the test plate, with an appropriate amount of acetonitrile and tris HCl buffer. Final DMSO and acetonitrile concentrations were […] and 0.5% respectively. NADPH was prepared in tris HCl buffer to a stock of 10 mM. A frozen aliquot of liver microsomes was retrieved from the freezer (−80° C.) and thawed by placing the tube on wet ice. After thawing, the tubes were gently mixed and the required amount, transferred to tris HCl buffer. Test compounds or positive control were pre-incubated, separately, for 10 minutes, with liver microsomes (1 mg/mL protein), at 37° C., in 100 mM Tris HCl at pH 7.5. After preincubation the reaction was started by adding 1 mM NADPH (pre-equilibrated to 30° C.) and the reaction allowed to proceed for 60 minutes. At 60 minutes, a 50 μL aliquot was removed and quenched with 200 uL of acetonitrile containing a mixture of internal standards (Tolbutamide (500 ng/mL) and Telmistartan (500 ng/mL)) and vortexed then centrifuged at 4000 rpm for 10 minutes (Eppendorf 5810R). The supernatant was transferred to a 96 well plate for LC-MS/MS analysis.
An LC-MS/MS method was devised for the test compounds and the control, using a AB Sciex API 4000 system coupled to a NEXAR™ UHPLC (Shimadzu) system. Analytes were separated on a Phenomenex Kinetex C18 column (50×2.1 mm, 5 μm) using a gradient that was appropriate for each compound, at a flow rate of 1 ml/minute, utilizing a mobile phase of 0.1% formic acid in MILLI-Q™ water (A) and 0.1% formic acid in acetonitrile (B). The MS instrument was operated in positive mode (ESI+)/negative (ESI−). The multiple reaction monitoring (MRM) transition for test and control compounds was used for the LC-MS/MS analysis. MRM transitions for control compound 7-ethoxycoumarinm were Quadropole 1: 191.0, Quadropole 3:163.0, dwell time: 75 msec, using curtain gas settings of 5 V, ion-spray voltage of 5500 V, temperature of 50° C. and gas settings for nebulizer and auxiliary set to 30 and 40 psi, respectively. The interface heater was kept on. Entrance potential and collision cell exit potential were varied to tune for a specific compound.
Using a suitable LC-MS/MS method, the percentage of drug remaining at 60 minutes ([…]) was assessed by comparing the average analyte to internal standard area ratio at 60 minutes to the average analyte to internal standard area ratio at 0 time control, as a percentage, from a 5 to 10 μL sample injection.
According to the above assay, the test compounds listed in Table 7 below were active in the Human liver microsome assay at 10 μM and the % of drug remaining after 60 minutes (PDR60), in the presence of NADPH, was assessed by LC-MS/MS. Average PDR60 for the standard compound, 7-ethoxycoumarin was <=65% in the presence of NADPH. Scoring for the test compounds, in the presence of NADPH, was as follows: “A” represents a PDR60 of 81 to 100%, “B” represents a PDR60 of 61 to 80%, “C” represents a PDR60 of 31 to 60% and “D” represents a PDR60 of 0 to 30%.

Mice (male, C57BL/6) = test: Formalin pain assay in mice; type: in vivo, mouse; conditions: 2.5% formalin in left hind paw, time spent flinching/licking/biting
Procedure: Mice (male, C57BL/6) were placed singly in a Perspex chamber for approximately 30 min on three successive days to acclimate and thereby reduce stress-induced behaviors. On the fourth day, the experimental animals received a 25 μl injection of 2.5% formalin beneath the left plantar skin using a 29-gauge syringe. […] The total time spent on flinches/licking/biting of the hind paw was recorded by visual observation for every 5 min period/interval for total observation duration of 60 min in two phases, the early phase (0-5 min) and the late phase (15-40 min). Observers were blinded to the treatment group allocation.
For test compounds, % protection from 0-60 min was used to assess activity. Scoring for the test compounds was as follows: “A” represents a % protection of 81 to 100%, “B” represents a % protection of 61 to 80%, “C” represents a % protection of 31 to 60% and “D” represents a % protection of 0 to 30%.

[3] = tested on: rat dorsal root ganglion (DRG) cells; test: Rat dorsal root ganglion (DRG) excitability response to electrical field stimulation; type: cell-based; conditions: adult rat DRG cells, Ca5 Ca2+ indicator, six concentrations, highest typically 30 μM, read-out: Scoring: EC50, modulation of rat DRG excitability
Procedure: Rat Dorsal Root Ganglion Excitability Response of Representative Compounds Dorsal root ganglions (DRGs) were dissected from adult rats. The tissue was processed, and cells were seeded into cell culture plates (48 center wells of one quadrant in 384-well plates) and cultured for 2 days prior to Electrical field stimulation (EFS). To visualize the neuronal excitability response, intracellular Ca^+2 transients were monitored using the Ca^+2 indicator, Ca5. Ca5 was added to the cultures 1 h prior to EFS. Representative compounds of the invention (i.e., test compounds) and reference compound, tetracaine, were added in concentration-response format encompassing six concentrations, performed in duplicate. The highest concentration tested was typically 30 μM with 1 in 3 dilutions generating the subsequent concentrations.
Effects on DRG excitability by the test compounds and standard were evaluated using four EFS protocols as disclosed in Table 2.
Experimental results were performed using two seperate sets of plates using separate test compound and standard dilutions, to provide n=2. In the first set of experiments, compounds were added 24 h prior to EFS to increase the possibility to also detect more long-term compound effects. In the second set of experiments the compounds were added directly prior to EFS. Excitability response to EFS was analyzed as the average fluorescence ratio (peak/baseline) change per well. All plates were evaluated using high content imaging equipment post-EFS, imaging the Ca5 background staining to detect any possibile compound-related toxic effects.
Average response by the reference compound, tetracaine, was 4.05 μM.

CC[C@H](CC(O)[C@@H](C)[C@H]1CC[C@H]2[C@H](CO)[C@@H]([C@@]3(C)Cc4cn[nH]c4C[C@@H]3CO)CC[C@]12C)C(C)C (stereo partly drawn) [Ia-9, (2S,5R)-5-ethyl-2-((1R,3aS,4S,5S,7aS)-4-(hydroxymethyl)-5-((5R,6S)-6-(hydroxymethyl)-5-methyl-4,5,6,7-tetrahydro-1H-indazol-5-yl)-7a-methyloctahydro-1H-inden-1-yl)-6-methylheptan-3-ol]
IC50 [1]: 1.5 to 15 µM

C[C@@H]1CC[C@@]2(OC1)O[C@H]1C[C@H]3[C@H](CO)[C@@H]([C@@]4(C)Cc5cn[nH]c5C[C@@H]4CO)CC[C@]3(C)[C@H]1[C@@H]2C [Ia-1, ((5R,6S)-5-((2R,3S,3aR,3bS,5′R,6S,7R,7aS,8aS)-7-(hydroxymethyl)-3,3b,5′-trimethyltetradecahydrospiro[indeno[2,1-b]furan-2,2′-pyran]-6-yl)-5-methyl-4,5,6,7-tetrahydro-1H-indazol-6-yl)methanol]
IC50 [1]: 1.5 to 15 µM

C[C@]1([C@H]2CC[C@]3(C)C(O)CC[C@H]3[C@@H]2CO)Cc2cn[nH]c2C[C@@H]1CO (stereo partly drawn) [Ia-10a and Ia-10b]
Scoring: % of drug remaining after 60 minutes (PDR60) [2]: C (“C” represents a PDR60 of 31 to 60%)
Scoring: % protection from 0-60 min (Mice (male, C57BL/6)): C (“C” represents a % protection of 31 to 60%)

C=C1CC[C@H]2[C@H](CN)[C@@H]([C@@]3(C)Cc4cn(-c5ccc(OC)cc5)nc4C[C@@H]3CO)CC[C@]12C [Ia-15, ((5R,6S)-5-((3aS,4R,5S,7aS)-4-(aminomethyl)-7a-methyl-1-methyleneoctahydro-1H-inden-5-yl)-2-(4-methoxyphenyl)-5-methyl-4,5,6,7-tetrahydro-2H-indazol-6-yl)methanol]
Scoring: % of drug remaining after 60 minutes (PDR60) [2]: B (“B” represents a PDR60 of 61 to 80%)
EC50 [3]: 6 to 15 µM

C[C@@H]1CC[C@@]2(OC1)O[C@H]1C[C@H]3[C@H](CN)[C@@H]([C@@]4(C)Cc5cn[nH]c5C[C@@H]4CO)CC[C@]3(C)[C@H]1[C@@H]2C [Ia-2, ((5R,6S)-5-((2R,3S,3aR,3bS,5′R,6S,7R,7aS,8aS)-7-(aminomethyl)-3,3b,5′-trimethyltetradecahydrospiro[indeno[2,1-b]furan-2,2′-pyran]-6-yl)-5-methyl-4,5,6,7-tetrahydro-1H-indazol-6-yl)methanol]
Scoring: % of drug remaining after 60 minutes (PDR60) [2]: A (“A” represents a PDR60 of 81 to 100%)
Scoring: % protection from 0-60 min (Mice (male, C57BL/6)): D (“D” represents a % protection of 0 to 30%)
IC50 [1]: 1.5 to 15 µM
EC50 [3]: 6 to 15 µM

C=C1CC[C@H]2[C@H](CN)[C@@H]([C@@]3(C)Cc4cnn(-c5ncc(F)cn5)c4C[C@@H]3CO)CC[C@]12C [Ia-26, ((5R,6S)-5-((3aS,4R,5S,7aS)-4-(aminomethyl)-7a-methyl-1-methyleneoctahydro-1H-inden-5-yl)-1-(5-fluoropyrimidin-2-yl)-5-methyl-4,5,6,7-tetrahydro-1H-indazol-6-yl)methanol]
Scoring: % of drug remaining after 60 minutes (PDR60) [2]: D (“D” represents a PDR60 of 0 to 30%)
EC50 [3]: 6 to 15 µM

C=C1CC[C@H]2[C@H](CN)[C@@H]([C@@]3(C)Cc4cnn(-c5ccc(C(=O)c6ccccc6)cc5)c4C[C@@H]3CO)CC[C@]12C [Ia-20, (4-((5R,6S)-5-((3aS,4R,5S,7aS)-4-(aminomethyl)-7a-methyl-1-methyleneoctahydro-1H-inden-5-yl)-6-(hydroxymethyl)-5-methyl-4,5,6,7-tetrahydro-1H-indazol-1-yl)phenyl)(phenyl)methanone]
Scoring: % of drug remaining after 60 minutes (PDR60) [2]: B (“B” represents a PDR60 of 61 to 80%)
EC50 [3]: < 2 µM

C=C1CC[C@H]2[C@H](CN)[C@@H]([C@@]3(C)Cc4cn(-c5ccc(Oc6ccccc6)cc5)nc4C[C@@H]3CO)CC[C@]12C [Ia-29, ((5R,6S)-5-((3aS,4R,5S,7aS)-4-(aminomethyl)-7a-methyl-1-methyleneoctahydro-1H-inden-5-yl)-5-methyl-2-(4-phenoxyphenyl)-4,5,6,7-tetrahydro-2H-indazol-6-yl)methanol]
Scoring: % of drug remaining after 60 minutes (PDR60) [2]: C (“C” represents a PDR60 of 31 to 60%)
EC50 [3]: < 2 µM

COc1ccc(Cn2cc3c(n2)C[C@H](CO)[C@@](C)([C@H]2CC[C@]4(C)[C@@H](C)CC[C@H]4[C@@H]2CN)C3)cc1 [Ia-52, ((5R,6S)-5-((1S,3aS,4S,5S,7aR)-4-(aminomethyl)-1,7a-dimethyloctahydro-1H-inden-5-yl)-2-(4-methoxybenzyl)-5-methyl-4,5,6,7-tetrahydro-2H-indazol-6-yl)methanol]
Scoring: % of drug remaining after 60 minutes (PDR60) [2]: A (“A” represents a PDR60 of 81 to 100%)
EC50 [3]: < 2 µM
